Test results published in US4061862A, “Derivatives of 7-(cyclized)phenylglycyl-3-triazolo-thio methyl cephalosporin” (priority 1976, dated 1977).

Test: Bio-assay (mcg./mg.)
Settings: sesquihydrate
Experimental: 7-[D-α-amino-α-(p-hydroxyphenyl)acetamido]-3-(1,2,3-triazol-5-ylthiomethyl)-3-cephem-4-carboxylic acid methanol solvate (15 g.) was slurried in 60 ml. of water. The pH was raised to 6.5 by addition of 4N NaOH and the mixture was passed through a 200 mesh screen. The reaction mixture was slurried at room temperature for 2 hours, the pH being maintained at 6.5 during this period. The crystals were removed by filtration, washed with 20 ml. of water and air dried at 37° C. for 24 hours to give 11.5 g. of title crystalline product. Bio assay = 924 mcg./mg. (average % H2 O, K.F. = 5.26).
7-[D-α-amino-α-(p-hydroxyphenyl)acetamido]-3-(1,2,3-triazol-5-ylthiomethyl)-3-cephem-4-carboxylic acid methanol solvate (200 mesh; 10.0 g.) substantially free of propylene glycol is slurried in 30-40 ml. of deionized water at ambient room temperature (20°-25° C.) to give a pH 3-4 aqueous suspension. NaOH (40%) is slowly added with rapid stirring to bring the pH to 6.3-6.7. The mixture is slurried at pH 6.3-6.7 for 2 hours. The crystals are removed by filtration, washed with water and air dried at room temperature for 24 hours to give a 75-80% weight yield of 950-1000 mcg./mg. crystals of 7-[D-α-amino-α-(p-hydroxyphenyl)acetamido]-3-(1,2,3-triazol-5-ylthiomethyl)-3-cephem-4-carboxylic acid dihydrate. […] H2 O, K.F. = 6.56.

N[C@@H](C(=O)NC1C(=O)N2C(C(=O)O)=C(CSc3c[nH]nn3)CS[C@H]12)c1ccc(O)cc1 (stereo partly drawn) [7-[D-α-amino-α-(p-hydroxyphenyl)acetamido]-3-(1,2,3-triazol-5-ylthiomethyl)-3-cephem-4-carboxylic acid sesquihydrate]
Bio-assay: 924 µg/mg
